{"source": "patent US20090130098A1", "about": "“Specific therapy using integrin ligands for treating cancer” (Merck Patent GmbH, priority 2006, published 2009)", "key": {"various brain tumors": {"test_system": "various brain tumors", "settings": "human, in vivo; cited from earlier work"}, "[1]": {"test_system": "newly diagnosed glioblastoma (GBM)", "assay": "Phase I/IIa trial of cilengitide with temozolomide and radiotherapy in newly diagnosed glioblastoma", "type": "in vivo, human", "settings": "cilengitide 500 mg + TMZ/RT", "protocol": "Purpose: To evaluate safety, toxicity, and efficacy of the combination of the cyclic RGD pentapeptide Cilengitide (=cyclo-(Arg-Gly-Asp-DPhe-NMe-Val)), an inhibitor of integrins αvβ3 and αvβ5, in addition to standard temozolomide (TMZ) and radiotherapy (RT).\nPatients and methods: Fifty-two pts (PS 0-1: 92%, 2: 8%; median age 57 yrs) after biopsy (n= 9/17%) or tumor resection (n= 43/83%) were treated with standard TMZ/RT (Stupp et al. NEJM 2005). In addition Cilengitide (500 mg i.v., 2×/week) was started one week before TMZ/RT and given throughout for the duration of chemotherapy or until progression. Primary endpoint was progression free survival rate at 6 months (target: 65%). Patients were followed with MRI every 2 months. Histopathologic diagnosis and MRI imaging were independently reviewed, MGMT promotor methylation status was assessed in 45 (86.5%) pts."}, "[2]": {"test_system": "recurrent glioblastoma (GBM)", "assay": "Phase IIa trial of cilengitide single agent therapy in recurrent glioblastoma", "type": "in vivo, human", "protocol": "Background: The present phase IIa study was designed to evaluate the safety, toxicity, and clinical activity of the cyclic RGD pentapeptide cilengitide ((=cyclo-(Arg-Gly-Asp-DPhe-NMe-Val)), an inhibitor of integrins αvβ3 and αvβ5, as a single agent at doses of 500 and 2000 mg in patients (pts) with recurrent glioblastoma (GBM).\nMethods: In this multicenter, open-label, randomized, uncontrolled study, pts with GBM and measurable disease that had relapsed after previous therapy with temozolomide and radiotherapy were randomized to receive cilengitide at doses of either 500 mg or 2000 mg i.v., 2×/week, until progression. Histopathology diagnosis and MRI imaging were subject to independent blinded review. The primary endpoint was Progression Free Survival (PFS) at 6 months (mths). Secondary endpoints included response, survival, time to disease progression, safety, tolerability and pharmacokinetics."}}, "data": [{"molecule": "CC(C)[C@H]1C(=O)N[C@@H](CCCN=C(N)N)C(=O)NCC(=O)N[C@@H](CC(=O)O)C(=O)N[C@H](Cc2ccccc2)C(=O)N1C", "note": "[cilengitide, cyclo-(Arg-Gly-Asp-DPhe-NMeVal)]", "values": [{"measurement": "MTD", "setting": "various brain tumors", "value": "no known MTD"}, {"measurement": "non-hematologic grade 3: constitutional symptoms (asthenia, fatigue, anorexia)", "setting": "[1]", "value": 3, "unit": "n"}, {"measurement": "non-hematologic grade 3: deep venous thrombosis and pulmonary embolism", "setting": "[1]", "value": 1, "unit": "n"}, {"measurement": "non-hematologic grade 3: elevated liver function tests", "setting": "[1]", "value": 1, "unit": "n"}, {"measurement": "sigmoid perforation (grade 2)", "setting": "[1]; patient with history of sigmoid diverticulosis", "value": "One patient"}, {"measurement": "pts who received 12 or more cycles of therapy", "setting": "[2]; 500 mg", "value": 4, "unit": "pts"}, {"measurement": "pts who received 12 or more cycles of therapy", "setting": "[2]; 2000 mg", "value": 6, "unit": "pts"}, {"measurement": "tumor control, 2000 mg vs 500 mg", "setting": "[2]; 2000 mg 2x/week, not statistically significant", "value": "trend towards better tumor control"}, {"measurement": "Treatment related NCI CTC grade 3 AE: arthralgia/myalgia", "setting": "[2]; at 500 mg", "value": 1, "unit": "patient"}, {"measurement": "Treatment related NCI CTC grade 3 AE: elevated liver enzymes", "setting": "[2]; at 500 mg", "value": 1, "unit": "patient"}, {"measurement": "Treatment related NCI CTC grade 3 AE: weight increase/edema", "setting": "[2]; at 2000 mg", "value": 1, "unit": "patient"}, {"measurement": "single agent activity in recurrent glioblastoma", "setting": "[2]; in vivo", "value": "advantageous single agent activity"}]}]}
